What all share (experiment): NCI tumour cell line growth inhibition, 48 h
The subject of assay [1] is SK-OV-3 ovarian.
The subject of assay [2] is SN12C renal.
Assay [3] deals with NCI-H226 lung.
The subject of assay [4] is A549 NSCLC.
The subject of assay [5] is SF-268 CNS.
The test system of assay [6] is OVCAR-5 ovarian.
The test system of assay [7] is HT29 colon.
For assay [8], the system named is LOX IMVI melanoma.
Assay [9] deals with IGROV1 ovarian.
In assay [10] the test system is HCT-116 colon.

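Following 48 hours of exposure in 96-well plates, responses at five concentrations were used to interpolate endpoints linearly. GI50: concentration for 50% inhibition of growth. At the TGI there is no net growth.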 Some results are limits rather than exact numbers.

For `O=S(=O)(/N=c1/scc(-c2ccccc2)n1-c1ccccc1)c1ccc(N2N=C3c4ccccc4CC3C2c2cccs2)cc1` (stereo not drawn), the GI50 is greater than 100 µM in assay [1]; 94.3 µM in assay [2]; 78.9 µM in assay [3]; 57 µM in assay [4]; greater than 100 µM in [5]; 88.9 µM in [6]. For the same compound, the GI50 in assay [7] is 82 µM; in [8], 32.4 µM. The TGI in assay [1], in assay [2], in assay [3], in assay [4], in assay [5] and in assay [6] was greater than 100 µM each time. Also, the TGI in [7] and in assay [8] was greater than 100 µM each time.
With `C=C[C@]1(C)CCC2=C(CCC3C2(C)CCC[C@@]3(C)COC(C)=O)C1` (stereo partly drawn), the TGI in [1] was found to be 33 µM; in assay [2], 31.4 µM; in [3] it was 34.6 µM; in assay [4], 52.5 µM; in assay [5], 40 µM; in assay [6], 32.8 µM. Moreover, the TGI in assay [9] was 38.1 µM; in assay [7], 33.9 µM; in assay [10], 30.9 µM; in assay [8], 33.8 µM.
Consider `Cc1ccc(Cl)c(Nc2ccccc2C(=O)O)c1Cl`, for which the GI50 is 26 µM in [1]; 30.7 µM in assay [2]; 28 µM in [3]; 30.4 µM in assay [4]; 31.8 µM in assay [5]; 31.9 µM in assay [6]. The GI50 was 32.3 µM in assay [9], 35.6 µM in assay [7], 19.6 µM in [10] and 18.7 µM in [8]. Moreover, the TGI in assay [1] is 65 µM; in assay [2], greater than 100 µM; in assay [3] it was 82.4 µM; in assay [4], greater than 100 µM; in assay [5], greater than 100 µM; in assay [6] it was 98.9 µM. The TGI was 93.4 µM in assay [9], greater than 100 µM in assay [7], 44.9 µM in [10] and 44.9 µM in assay [8].
In the case of `O=C1CCSC2=C1SCc1sccc12`, the TGI in [1], in [2], in assay [4], in assay [5], in [6] and in [9] was greater than 100 µM throughout. The compound also yielded a TGI in assay [8] greater than 100 µM.
`CCNC(=O)O/N=C1\CCC2[C@@H]3CC=C4C[C@@H](OC5CCCCO5)CC[C@]4(C)C3CC[C@]12C` (stereo partly drawn): the TGI was 17.3 µM in assay [1]; 6.07 µM in [2]; 64.2 µM in [4]; 13 µM in [6]; greater than 100 µM in [9]; 13.3 µM in assay [7]. Also, the TGI in assay [10] is greater than 100 µM.
For `CC(C)(C)CC(N)=O`, the TGI in [1], in assay [2], in [3], in [4], in assay [5] and in assay [6] was greater than 100 µM in each case. Besides, the TGI in assay [9], in assay [7], in [10] and in assay [8] was greater than 100 µM throughout.
Consider `CN1C/C=C/CCOc2cccc(c2)-c2ccnc(n2)Nc2cccc(c2)C1`, for which the GI50 was 0.174 µM in [1]; 0.0442 µM in [2]; 0.0347 µM in assay [3]; 0.0394 µM in assay [4]; 0.0425 µM in [5]; 0.0323 µM in assay [6]. The GI50 in [9] is 0.0324 µM; in assay [7] it was 0.0376 µM; in [10], 0.0277 µM; in [8], 0.0248 µM. Also, the TGI in [1] stood at 3.82 µM; in assay [2], 2.73 µM; in assay [3] it was 0.442 µM; in [4], 1.12 µM; in assay [5] it was 0.264 µM; in [6] it was 2.08 µM. The TGI was found to be 0.338 µM in assay [9], 0.416 µM in assay [7], 1.08 µM in assay [10] and 1.12 µM in [8].
Consider `CC(C)NC(=O)CCN(C(=O)O)S(=O)(=O)c1ccc(NC(=O)c2ccccc2)cc1`, for which the TGI in assay [1] is greater than 100 µM; in [2], greater than 100 µM; in [3] it was greater than 100 µM; in assay [4], greater than 71.2 µM; in assay [5] it was greater than 100 µM; in assay [6], greater than 100 µM. In addition, the TGI in assay [9] was greater than 100 µM; in assay [7], greater than 100 µM; in assay [10], greater than 54.1 µM; in assay [8], greater than 61.7 µM.
Consider `Cn1c(NCC(O)CN2CCCC2)cc(=O)n(C)c1=O` (stereo not drawn), for which the GI50 in [1], in assay [2], in [3], in [4], in assay [5] and in assay [6] was greater than 100 µM in each case. In addition, the GI50 in assay [9], in assay [7], in [10] and in [8] was greater than 100 µM throughout. The TGI in [1], in [2], in assay [3], in assay [4], in assay [5] and in [6] was greater than 100 µM each time. Further, the TGI in assay [9], in [7], in [10] and in [8] was greater than 100 µM each time.
With `CC1(c2ccccc2)CC(c2cccc([N+](=O)[O-])c2)=NO1` (stereo not drawn), the TGI in assay [1], in assay [2], in assay [3], in assay [4], in [5] and in assay [6] was greater than 100 µM in each case. In addition, the TGI in [9], in assay [7] and in assay [10] was greater than 100 µM each time.
Take `COc1cc([N+](=O)[O-])c(OC)cc1-c1nc2sc(Cl)cn2c1/C=N/NC1=NCCN1`: the GI50 in [1] is 1.88 µM; in assay [2], 1.67 µM; in [6], 0.878 µM; in assay [7], 0.269 µM; in assay [10], 0.249 µM; in assay [8], 1.74 µM. Besides, the TGI in assay [1] was 3.48 µM; in assay [2], 3.52 µM; in assay [6], 2.3 µM; in [10], 0.616 µM; in assay [8] it was 3.25 µM.
`COc1cc(/C=C/C(=O)N2CCN(C(=O)c3cc(OC)c(OC)c(OC)c3)CC2)ccc1OCCCOc1cc2c(cc1OC)C(=O)N1CCC[C@H]1C=N2`: the GI50 in assay [1] was 0.551 µM; in assay [2], 0.303 µM; in assay [3], 0.286 µM; in assay [4] it was 0.953 µM; in assay [5], 0.284 µM; in assay [7] it was 0.34 µM. The GI50 in [8] is 0.215 µM. For the same compound, the TGI in [1] was greater than 71.3 µM; in assay [2], 21.8 µM; in assay [3], 1.19 µM; in assay [4], 9.26 µM; in assay [5] it was 4.03 µM; in assay [7], 12.8 µM. Besides, the TGI in assay [8] turned out to be 0.726 µM.
In the case of `CC#CC1C2CCCC1(CSc1ccccc1)NC(=O)O2` (stereo not drawn), the TGI in assay [1], in assay [2], in [3], in assay [4], in assay [5] and in assay [6] was greater than 100 µM in each case. Besides, the TGI in assay [9], in assay [7] and in assay [10] was greater than 100 µM each time.
In the case of `C=C(C(=C)P(=S)(c1ccccc1)c1ccccc1)P(=S)(c1ccccc1)c1ccccc1`, the TGI in [1], in assay [2], in assay [4], in [5], in assay [6] and in assay [9] was greater than 100 µM each time. Further, the TGI in assay [7] and in [10] was greater than 100 µM throughout.
In the case of `O=C(/C(=C\c1ccc(Cl)cc1)c1ccccc1)c1ccccc1`, the TGI in [1], in assay [2], in assay [3], in assay [5], in [6] and in assay [9] was greater than 100 µM in each case. Besides, the TGI in assay [7], in assay [10] and in assay [8] was greater than 100 µM throughout.
For the compound `CC1=CC(N2C(=O)C(C)=CC2O)NC1=O` (stereo not drawn), the TGI in [2], in [3], in assay [4], in assay [5], in assay [6] and in [7] was greater than 100 µM each time. For the same compound, the TGI in [10] and in [8] was greater than 100 µM each time.
Turning to `O=C(COC(=O)c1cccc2c(=O)c3ccccc3[nH]c12)Nc1ccc(C(=O)O)cc1`, the TGI was greater than 100 µM in assay [1]; greater than 100 µM in assay [2]; greater than 10 µM in [3]; greater than 100 µM in [4]; greater than 100 µM in [5]; greater than 100 µM in assay [9]. For the same compound, the TGI was greater than 100 µM in [7], greater than 100 µM in assay [10] and greater than 10 µM in [8].
`CC(C)(C)c1c2c(c(C(C)(C)C)c3c1OCN(Cc1ccccc1)C3)OCN(Cc1ccccc1)C2`: the TGI in [1] was greater than 100 µM; in assay [2], 34.9 µM; in assay [4], 39.8 µM; in assay [5], 35.6 µM; in assay [6] it was 39 µM; in assay [9], 45.1 µM. For the same compound, the TGI in assay [7] was 37.6 µM; in [10] it was 24.4 µM; in assay [8], 31.5 µM.
On to `COC(=O)C1=C(C(=O)OC)C2(C)Nc3ccccc3C2=C(c2ccccc2)C1` (stereo not drawn), for which the TGI in [2] was determined as 57.7 µM; in assay [4] it was 46.7 µM; in [5], 66.5 µM; in assay [6], 62.7 µM; in assay [9], 52.9 µM; in assay [7], 70.6 µM. Moreover, the TGI in assay [10] was 44 µM; in assay [8], 55.7 µM.
As to `CC(=O)c1cc(C(=O)c2ccc3c(c2)Sc2ccccc2N3)c2cc(C)ccn12`, the GI50 was 0.189 µM in [1]; 0.479 µM in [2]; 3.91 µM in assay [3]; 0.0648 µM in assay [4]; 0.0823 µM in [5]; 0.122 µM in assay [9]. The values for the GI50 in assay [7], in assay [10] and in assay [8] were 0.0627 µM, 0.0414 µM and 0.0906 µM, respectively. Moreover, the TGI in assay [1], in assay [2], in assay [3], in assay [4], in [5] and in assay [9] was greater than 100 µM in each case. The TGI in [7], in assay [10] and in [8] was greater than 100 µM each time.
`Clc1cc(Cl)cc(N2N=C(c3cccc(Nc4ccncc4)c3)CC2c2ccc3c(c2)OCO3)c1` (stereo not drawn): the GI50 in assay [1] is 2.54 µM; in assay [2], 1.66 µM; in assay [3] it was 1.91 µM; in [5], 1.7 µM; in assay [6] it was 1.83 µM; in [9] it was 1.62 µM. Besides, the GI50 in assay [7] was 2.14 µM; in assay [10], 1.7 µM. The TGI is 8.38 µM in [1]; 3.13 µM in [2]; 4.3 µM in assay [3]; 3.34 µM in [5]; 3.51 µM in assay [6]; 3.18 µM in [9]. Further, the TGI in assay [7] stood at 4.72 µM; in assay [10], 3.42 µM.
On to `CC(=O)Nc1ccc(COC(O)CN2CCCCC2)cc1[N+](=O)[O-]` (stereo not drawn), for which the TGI in [2], in [3], in [4], in assay [5], in [6] and in assay [9] was greater than 100 µM in each case. Besides, the TGI in assay [7] and in assay [10] was greater than 100 µM throughout.
`Cc1cc(C(C)(C)C)cc(CNC2CCCCC2)c1O`: the TGI in [1] was 41.9 µM; in [2] it was 29.5 µM; in assay [4], 33.8 µM; in assay [5] it was 30.3 µM; in assay [6], 31.9 µM; in [9], 26.9 µM. The values for the TGI in assay [7], in assay [10] and in [8] were 33.7 µM, 28.8 µM and 29.5 µM, respectively.
On to `NNC(=O)N/N=C1\C(=O)N(c2ccc(Cl)c(Cl)c2)C(=O)C(=O)C1c1nc2ccccc2s1` (stereo not drawn), for which the TGI in assay [1], in assay [2], in assay [3], in [4], in assay [5] and in assay [9] was greater than 100 µM each time. Besides, the TGI in assay [7] and in assay [10] was greater than 100 µM throughout.

The values above are taken from PubChem BioAssay (NCI).
